Experimental data published in patent US7189851B2, “Condensed heterocyclic compounds as calcitonin agonists” (SmithKline Beecham Corporation, priority 2002, dated 2007).

Columns and labels:
[1] = target: T1, human calcitonin-2 receptor (hCT2R) (Homo sapiens, UniProt P30988); assay: HCT2R CRE-luc reporter assay; format: cell-based; conditions: agonist activity; CHO-6CRE-luciferase cells co-transfected with hCT2R
T1 construct: expressed in transfected cells; host or cells: Chinese hamster ovary (CHO) cells co-transfected with a 6CRE-luciferase reporter; receptor cDNA cloned from the MCF7 cell line
T1 sequence (P30988 25-474): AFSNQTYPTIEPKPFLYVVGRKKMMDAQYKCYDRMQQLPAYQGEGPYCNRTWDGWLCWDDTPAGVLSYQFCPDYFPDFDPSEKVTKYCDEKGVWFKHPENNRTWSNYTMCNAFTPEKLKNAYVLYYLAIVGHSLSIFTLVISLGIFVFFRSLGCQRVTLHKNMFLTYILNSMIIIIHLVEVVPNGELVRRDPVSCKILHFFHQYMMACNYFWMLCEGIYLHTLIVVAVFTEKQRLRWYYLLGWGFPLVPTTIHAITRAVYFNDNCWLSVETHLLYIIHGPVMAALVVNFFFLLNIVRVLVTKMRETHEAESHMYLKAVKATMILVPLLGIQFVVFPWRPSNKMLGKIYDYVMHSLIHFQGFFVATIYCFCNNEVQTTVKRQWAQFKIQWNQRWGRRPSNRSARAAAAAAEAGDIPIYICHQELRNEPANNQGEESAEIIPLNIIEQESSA

neonatal rat calvaria = assay: Rat calvaria assay in vitro (bone resorption); format: cell-based; set-up: key: Active: Rat calvaria: Concentration-dependent inhibition of bone resorption with efficacy equivalent to calcitonin 1 ng/ml; conditions: PTH 10 ng/ml stimulated bone resorption; calcium and deoxypyridinoline in supernatant
Protocol: Bone resorption of neonatal rat cavarial chips was measured using methods adapted from published protocols [Ulf H, Lemer Modifications of the Mouse Calvarial Technique Improve the Responsiveness to Stimulators of Bone Resorption. Journal of Bone and Mineral Research Vol 2, No. 5, 1987]. Resorption was measured by quantification of calcium in the supernatant by a calorimetric assay and of deoxypyridinoline in the supernatant by ELISA. Deoxypyridinoline is released as a by product of collagen degradation by the osteoclast
Calvaria were surgically removed from 2–3 day old Wistar rats and placed in a sterile tube containing BGJb media (Fitton-Jackson Modification)—GIBCO BRL with penicillin (10 U/ml)/streptomycin (10 μg/ml). Calvaria were washed twice with fresh media, trimmed of excess tissue, and placed in fresh media. Calvaria were uniformly sectioned and placed in the wells of a tissue culture plate in 1 ml of BGJb/P/S with 1 mg/ml BSA. Calvaria were incubated for 24 hours at 37° C., 5% CO2 before treatments. Media was aspirated and replaced with 1 ml of fresh media containing PTH 10 ng/ml . Unstimulated wells contained media alone. Test compounds or calcitonin (1 ng/ml) were added. Compounds or calcitonin were added again on days 2 and 3, with no medium or PTH additions. Upon completion of the assay, the media was collected and stored at −20° C. until analysis was performed. Calvaria were air-dried for several days, and dry weight was quantified.
Deoxypyridinoline ELISA: Supernatants were evaluated for deoxypyridinoline crosslinks according to kit manufacturer instructions. SoftMax software was used to evaluate ELISA data from a 96-well format to generate a standard curve. Sample values were extrapolated from this standard curve. Extrapolated sample values were imported into a Microsoft Excel to normalize sample values to dried calvarial weight. Data was expressed as nanomolar DPD/mg calvaria.
Calcium analysis: Calcium determinations were made using Arsenazo III reagent from Sigma Diagnostics No. 588. Procedure followed as described by manufacturer in kit instructions. Data was imported from plate reader into Microsoft® Excel® and calcium concentrations were calculated as follows: [Asample/Astandard]×Concentration of standard=mg/dL Calcium
Sample values were normalized to dried calvarial weight and expressed as mg/dL calcium per mg calvaria.

[2] = system: Thyroid-parathyroidectomized (TPTX) rats; assay: Rat TPTX assay in vivo (PTH-induced elevation of serum calcium); set-up: key to TPTX rat in vivo: Active: TPTX (Thyroid- parathyroidectomized) rat: Significant inhibition of bone resorption reflected in serum calcium levels relative to PTH + Vehicle controls; conditions: serum calcium, PTH-infused TPTX rats, vs PTH + Vehicle
Text: Thyroid-parathyroidectomized (TPTX) rats were used to determine the effects of compounds on PTH-induced elevation of serum calcium in vivo. The thyroid and parathyroid glands of male CD rats were removed under anesthesia and subcutaneous pumps containing human parathyroid hormone (hPTH 1–34) were implanted two to five days after TPTX. […] PTH was delivered at a rate of 30 micrograms/kg/hour. PTH causes significant elevations of serum calcium in TPTX rats given no other treatments. Rats were treated with vehicle, test compounds at various doses or calcitonin 16 units/kg SC. […] Serurn calcium was measured at baseline and every two hours up to six hours. Averaged group responses at each time point were compared using Analysis of Variance (ANOVA).

Human osteoclasts = assay: Human osteoclast assay in vitro (bone resorption); format: cell-based; set-up: key: Active: Human osteoclast: Significant inhibition of bone resorption in the absence of toxicity, relative to vehicle-treated controls; conditions: inhibition of bone resorption on cortical bone slices, 3 to 7 days
Protocol: Human osteoclasts were differentiated from peripheral blood cells using methods adapted from published protocols [Journal of Experimental Medicine 188(5):997–1001, 1998. TRANCE is necessary and sufficient for osteoblast-mediated activation of bone resorption in osteoclasts. K Fuller, B Wong, S Fox, Y Choi, and T J Chambers]. Human mononuclear cells were incubated on bone slices in M_CSF (30 ng/ml) and RANKL (TRANCE, 30 ng/ml) for 10 days. Differentiated osteoclasts were identified using an osteoclast-specific monoclonal antibody. Osteoclasts with test compounds or vehicle were incubated on cortical bone slices for an additional 3 to 7 days to measure bone resorption. In addition to bone resorption, toxicity and osteoclastogenesis were observed after compound treatments. A positive response was defined as significant inhibition of bone resorption without toxicity.

Question: Which results are given for `CCOC(=O)c1c(CCc2ccc(C(F)(F)F)cc2)nc2c(c1-c1ccc(S(=O)(=O)NCc3ccco3)cc1)C(=O)N1CCC[C@@H]21` [Example 2, Ethyl (9aS)-4-(4-{[(2-furylmethyl)amino]sulfonyl}phenyl)-5-oxo-2-{2-[4-(trifluoromethyl)phenyl]ethyl}-7,8,9,9a-tetrahydro-5H-pyrido[2,3-a]pyrrolizine-3-carboxylate]?
Answer: EC50 [1]: 100 to 1000 nM; melting point: 181 to 182 °C

Question: With `CCOC(=O)c1c(CCc2ccc(C(F)(F)F)cc2)nc2c(c1-c1ccc(C(=O)N[C@H](C)c3ccncc3)cc1)C(=O)N1CCC[C@@H]21` [Example 4, Ethyl (9aS)-5-oxo-4-[4-({[(1R)-1-(4-pyridinyl)ethyl]amino}carbonyl)phenyl]-2-{2-[4-(trifluoromethyl)phenyl]ethyl}-7,8,9,9a-tetrahydro-5H-pyrido[2,3-a]pyrrolizine-3-carboxylate] as the compound, how does the “Rat calvaria in vitro” value (neonatal rat calvaria) read?
Answer: The value was “Active”.

Question: And the EC50 [1]?
Answer: The EC50 was 10 to 100 nM.

Question: And the “TPTX rat in vivo” value [2]?
Answer: Its value is “Active”.

Question: With `CCOC(=O)c1c(CCc2ccc(C(F)(F)F)cc2)nc2c(c1-c1ccc(C(=O)N[C@@H](C)c3ccncc3)cc1)C(=O)N1CCC[C@@H]21` [Example 5, Ethyl (9aS)-5-oxo-4-[4-({[(1S)-1-(4-pyridinyl)ethyl]amino}carbonyl)phenyl]-2-{2-[4-(trifluoromethyl)phenyl]ethyl}-7,8,9,9a-tetrahydro-5H-pyrido[2,3-α]pyrrolizine-3-carboxylate] as the compound, how does the “Rat calvaria in vitro” value (neonatal rat calvaria) read?
Answer: The value was “Active”.

Question: And the EC50 [1]?
Answer: The EC50 was 100 to 1000 nM.

Question: What about the melting point of the same compound?
Answer: The melting point was 158 to 160 °C.

Question: And the “TPTX rat in vivo” value [2]?
Answer: Its value is “Active”.

Question: For `CCOC(=O)c1c(CCc2ccc(C(F)(F)F)cc2)nc2c(c1-c1ccc(NC(=O)Nc3ccccc3)cc1)C(=O)N1CCC[C@@H]21` [Example 7, Ethyl (9aS)-4-{4-[(anilinocarbonyl)amino]phenyl}-5-oxo-2-{2-[4-(trifluoromethyl)phenyl]ethyl}-7,8,9,9a-tetrahydro-5H-pyrido[2,3-α]pyrrolizine-3-carboxylate], which EC50 [1] is on record?
Answer: The EC50 was 100 to 1000 nM.

Question: What about the melting point of the same compound?
Answer: Its melting point is 137 to 139 °C.

Question: For `CCOC(=O)c1c(CCc2ccc(C(F)(F)F)cc2)nc2c(c1-c1ccc(C(=O)NCc3ccco3)cc1)C(=O)N1CCC[C@@H]21` [Example 11, Ethyl(9aS)-4-(4-{[(2-furylmethyl)amino]carbonyl}phenyl)-5-oxo-2-{2-[4-(trifluoromethyl)phenyl]ethyl}-7,8,9,9a-tetrahydro-5H-pyrido[2,3-a]pyrrolizine-3-carboxylate], which “Human osteoclast in vitro” value (Human osteoclasts) is on record?
Answer: Its value is “Active”.

Question: And the “Rat calvaria in vitro” value (neonatal rat calvaria)?
Answer: The value was “Active”.

Question: And the EC50 [1]?
Answer: Its EC50 is at most 10 nM.

Question: With `CCOC(=O)c1c(CCc2ccc(C(F)(F)F)cc2)nc2c(c1-c1ccc(C(=O)NCc3cccnc3)o1)C(=O)N1CCC[C@@H]21` [Example 12, Ethyl(9aS)-5-oxo-4-(5-{[(3-pyridinylmethyl)amino]carbonyl}-2-furyl)-2-{2-[4-(trifluoromethyl)phenyl]ethyl}-7,8,9,9a-tetrahydro-5H-pyrido[2,3-a]pyrrolyzine-3-carboxylate] as the compound, how does the “Human osteoclast in vitro” value (Human osteoclasts) read?
Answer: The value was “Active”.

Question: And the “Rat calvaria in vitro” value (neonatal rat calvaria)?
Answer: Its value is “Active”.

Question: And the EC50 [1]?
Answer: Its EC50 is 10 to 100 nM.

Question: What about the “TPTX rat in vivo” value [2] of the same compound?
Answer: Its value is “Active”.

Question: What does the source list for `CCOC(=O)c1c(CCc2ccc(F)cc2)nc2c(c1-c1cc(C(=O)NCc3ccc(F)c(F)c3)cs1)C(=O)N1CCC[C@@H]21` [Example 16, Ethyl(9aS)-4-(4-{[(3,4-difluorobenzyl)amino]carbonyl}-2-thienyl)-2-[2-(4-fluorophenyl)ethyl]-5-oxo-7,8,9,9a-tetrahydro-5H-pyrido[2,3-a]pyrrolizine-3-carboxylate]?
Answer: Rat calvaria in vitro (neonatal rat calvaria): Active; EC50 [1]: ≤ 10 nM; TPTX rat in vivo [2]: Active

Question: Which results are given for `CCOC(=O)c1c(CCc2ccc(OC)cc2)nc2c(c1-c1ccc(C(=O)NCc3ccccn3)cc1)C(=O)N1CCC[C@H]1C2` [Example 57, Ethyl (9aS)-2-[2-(4-methoxyphenyl)ethyl]-5-oxo-4-(4-{[(2-pyridinylmethyl)amino]carbonyl}phenyl)-5,7,8,9,9a,10-hexahydropyrrolo[1,2-g][1,6]naphthyridine-3-carboxylate]?
Answer: EC50 [1]: ≥ 1000 nM; melting point: > 200 °C
